Data published in ChEMBL document CHEMBL1158855, “Study on cytotoxic oxygenated desmosterols isolated from the red alga Galaxaura marginata” (1997).
≈ marks a conversion by molar mass, not a printed value.

Legend:
Format in all cases: functional
Details in all cases: read-out: ED50 (the source's name)
A549 = assay: Cytotoxicity against human A549 cells by MTT assay
HT-29 = assay: Cytotoxicity against human HT29 cells by MTT assay
KB = assay: Cytotoxicity against human KB cells by MTT assay
P388 = assay: Cytotoxicity against mouse P388 cells by MTT assay

C=C(C)C(CC[C@@H](C)[C@H]1CC[C@H]2[C@@H]3C[C@@H](O)C4=CC(=O)CC[C@]4(C)[C@H]3CC[C@]12C)OO (stereo not given in full)
EC50 (A549): 0.58 µg/mL (≈ 1.35 µM)
EC50 (HT-29): 0.47 µg/mL (≈ 1.09 µM)
EC50 (KB): 0.79 µg/mL (≈ 1.83 µM)
EC50 (P388): 0.22 µg/mL (≈ 0.511 µM)

C=C(C)C(O)CC[C@@H](C)[C@H]1CC[C@H]2[C@@H]3C[C@@H](O)C4=CC(=O)CC[C@]4(C)[C@H]3CC[C@]12C (stereo not given in full)
EC50 (A549): 2.37 µg/mL (≈ 5.72 µM)
EC50 (HT-29): 0.3 µg/mL (≈ 0.724 µM)
EC50 (KB): 0.83 µg/mL (≈ 2 µM)
EC50 (P388): 0.19 µg/mL (≈ 0.458 µM)

C=C(C)C(=O)CC[C@@H](C)[C@H]1CC[C@H]2[C@@H]3CC(=O)C4=CC(=O)CC[C@]4(C)[C@H]3CC[C@]12C
EC50 (A549): 0.27 µg/mL (≈ 0.658 µM)
EC50 (HT-29): 0.3 µg/mL (≈ 0.731 µM)
EC50 (KB): 0.24 µg/mL (≈ 0.585 µM)
EC50 (P388): 0.11 µg/mL (≈ 0.268 µM)

C[C@H](C/C=C/C(C)(C)OO)[C@H]1CC[C@H]2[C@@H]3C[C@@H](O)C4=CC(=O)CC[C@]4(C)[C@H]3CC[C@]12C
EC50 (A549): 1 µg/mL (≈ 2.32 µM)
EC50 (HT-29): 0.63 µg/mL (≈ 1.46 µM)
EC50 (KB): 0.4 µg/mL (≈ 0.929 µM)
EC50 (P388): 0.28 µg/mL (≈ 0.65 µM)

C[C@H](C/C=C/C(C)(C)O)[C@H]1CC[C@H]2[C@@H]3C[C@@H](O)C4=CC(=O)CC[C@]4(C)[C@H]3CC[C@]12C
EC50 (A549): 1.54 µg/mL (≈ 3.71 µM)
EC50 (HT-29): 0.55 µg/mL (≈ 1.33 µM)
EC50 (KB): 0.45 µg/mL (≈ 1.09 µM)
EC50 (P388): 0.14 µg/mL (≈ 0.338 µM)
